Laboratory results reported in the supplement of paper PMC11451515.

Test system: NOMO1
Experiment: cell viability relative to DMSO control; higher = less cytotoxic
Settings: 48 h
In short: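 Viability is a per-plate percentage relative to DMSO wells, with cell-free wells as background. CellTiter-Glo One luminescence was read after 48 h at 37°C on 1536-well plates (5 μl) of NOMO1 or SEM (500 cells/well) or P12-Ichikawa (1000 cells/well) leukemia cells. The cells had been adapted for at least four passages in each medium and pin-dosed with library compounds in DMSO from 47 μM to 0.79 nM in 11 threefold steps.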

[1] = HPLM + 10% dialyzed FBS, 0.000781 µM
[2] = HPLM + 10% dialyzed FBS, 0.00234 µM
[3] = HPLM + 10% dialyzed FBS, 0.00702 µM
[4] = HPLM + 10% dialyzed FBS, 0.0211 µM
[5] = HPLM + 10% dialyzed FBS, 0.0632 µM
[6] = HPLM + 10% dialyzed FBS, 0.19 µM
[7] = HPLM + 10% dialyzed FBS, 0.569 µM
[8] = HPLM + 10% dialyzed FBS, 1.71 µM
[9] = HPLM + 10% dialyzed FBS, 5.12 µM
[10] = HPLM + 10% dialyzed FBS, 15.4 µM
[11] = HPLM + 10% dialyzed FBS, 46.1 µM
[12] = RPMI 5 mM glucose + 10% FBS, 0.000781 µM
[13] = RPMI 5 mM glucose + 10% FBS, 0.00234 µM
[14] = RPMI 5 mM glucose + 10% FBS, 0.00702 µM
[15] = RPMI 5 mM glucose + 10% FBS, 0.0211 µM
[16] = RPMI 5 mM glucose + 10% FBS, 0.0632 µM
[17] = RPMI 5 mM glucose + 10% FBS, 0.19 µM
[18] = RPMI 5 mM glucose + 10% FBS, 0.569 µM
[19] = RPMI 5 mM glucose + 10% FBS, 1.71 µM
[20] = RPMI 5 mM glucose + 10% FBS, 5.12 µM
[21] = RPMI 5 mM glucose + 10% FBS, 15.4 µM
[22] = RPMI 5 mM glucose + 10% FBS, 46.1 µM
[23] = RPMI 5 mM glucose + 10% dialyzed FBS, 0.000781 µM
[24] = RPMI 5 mM glucose + 10% dialyzed FBS, 0.00234 µM
[25] = RPMI 5 mM glucose + 10% dialyzed FBS, 0.00702 µM
[26] = RPMI 5 mM glucose + 10% dialyzed FBS, 0.0211 µM
[27] = RPMI 5 mM glucose + 10% dialyzed FBS, 0.0632 µM
[28] = RPMI 5 mM glucose + 10% dialyzed FBS, 0.19 µM
[29] = RPMI 5 mM glucose + 10% dialyzed FBS, 0.569 µM
[30] = RPMI 5 mM glucose + 10% dialyzed FBS, 1.71 µM
[31] = RPMI 5 mM glucose + 10% dialyzed FBS, 5.12 µM
[32] = RPMI 5 mM glucose + 10% dialyzed FBS, 15.4 µM
[33] = RPMI 5 mM glucose + 10% dialyzed FBS, 46.1 µM

SMILES	cell viability [1] [%]	cell viability [2] [%]	cell viability [3] [%]	cell viability [4] [%]	cell viability [5] [%]	cell viability [6] [%]	cell viability [7] [%]	cell viability [8] [%]	cell viability [9] [%]	cell viability [10] [%]	cell viability [11] [%]	cell viability [12] [%]	cell viability [13] [%]	cell viability [14] [%]	cell viability [15] [%]	cell viability [16] [%]	cell viability [17] [%]	cell viability [18] [%]	cell viability [19] [%]	cell viability [20] [%]	cell viability [21] [%]	cell viability [22] [%]	cell viability [23] [%]	cell viability [24] [%]	cell viability [25] [%]	cell viability [26] [%]	cell viability [27] [%]	cell viability [28] [%]	cell viability [29] [%]	cell viability [30] [%]	cell viability [31] [%]	cell viability [32] [%]	cell viability [33] [%]
Cn1cc(/C=C2\C(=O)Nc3cccnc32)c2ccccc21	118	138	122	138	157	138	138	146	126	123	98.8	113	119	130	129	143	123	124	142	125	77.1	89.3	117	118	117	132	130	140	141	147	128	78.2	84.3
CCCCC(C=O)NC(=O)C(CC(C)C)NC(=O)OCc1ccccc1 (stereo not drawn)	104	98.5	86.4	94.7	85.5	83	92.2	82.7	89.4	82	55.9	91.8	93.3	90.1	102	93.7	88.9	85.4	72.7	80.2	68.6	77.6	103	93.3	95.1	97.4	101	83.9	90.4	82.2	77.6	80.9	70.1
Cc1[nH]c(/C=C2\C(=O)Nc3ccccc32)c(C)c1CCC(=O)O	92.3	101	108	114	113	106	99.9	118	105	51.3	23.8	95.9	112	108	114	115	123	111	104	110	58.7	18.4	97	118	96.1	98.1	113	106	102	109	103	101	22.7
Cc1cc(Nc2nc(N[C@@H](C)c3ccc(F)cc3)c(C#N)cc2F)n[nH]1	108	101	109	113	93.9	99.9	114	92.3	36.4	68.8	58.6	88.9	94.7	91.2	99.2	90.9	81.2	89.5	83	20.7	36.1	45.5	79.8	104	104	103	96.8	97.5	98.7	91.1	28.3	36.1	55
CN1\C(=C(\O)C2=C(C=CC=C2)[S+]1([O-])=O)C(=O)NC3=CC=CC=N3	107	138	110	122	122	129	105	107	102	58.2	29.1	109	101	108	116	117	123	113	109	123	43.9	21.2	87.5	103	100	100	113	99.2	116	94.6	99.6	108	35.3
CC[C@@]1(O)C(=O)OCC/2=C1/C=C3\N(CC4=CC5=CC(=CC=C5N=C34)O)C2=O												116	123	133	107	113	33.3	23.8	22.6	18.6	22.8	13.4	111	124	117	117	121	40.4	23.8	25.8	24.5	26.4	9.6
O=C(Nc1ncc(-c2cc(C(F)F)nn2-c2c(Cl)cccc2Cl)s1)C1CC1	120	107	120	117	132	138	137	99.1	44.4	62.8	49																						
CN1C(=O)C[C@H](C(=O)N[C@@H](Cc2cnc[nH]2)C(=O)N2CCC[C@H]2C(N)=O)NC1=O	119	122	109	113	116	125	126	130	104	108	107	126	115	121	119	126	132	114	124	116	115	114											
O=C(c1ccc(F)c(F)c1Nc1ccc(I)cc1F)N1CC(O)([C@@H]2CCCCN2)C1	96.3	91.9	97.4	108	90.9	70.1	56.4	41.8	15.1	13.3	14.3	91.4	99.9	98.2	93.4	92.5	74.1	61.8	29.1	8.07	7.33	5.28	89.4	99	93.9	102	100	69.7	58.6	44.1	10.1	10.2	11.6
CN[C@@H]1Cc2cccc3[nH]c(=O)n(c23)C1												112	113	118	110	107	105	108	106	105	102	103											
COCCOc1nc(-c2ccc(Cl)c(Cl)c2)n(-c2ccc(NC(=O)CCl)cc2)n1	92.5	113	110	114	113	115	96.6	110	87.2	85	107	78.3	86.9	84.4	82.7	85	87.6	80.7	84.9	91.3	92.6	86.7	82.7	92.1	93.5	83.7	97.4	87.5	96.9	93.9	86.4	79.7	104
CN(C)CCOc1ccc(-c2nc(-c3ccncc3)c(-c3ccc4c(c3)CC/C4=N\O)[nH]2)cc1	98.1	113	102	110	127	129	129	107	95.3	95.2	62.9	97	101	95	104	118	112	97.2	95.5	104	86.9	81.4	108	105	121	106	119	121	115	106	85.5	85.4	53.8
CC(/C=C/C(=O)NO)=C\[C@@H](C)C(=O)c1ccc(N(C)C)cc1	112	104	107	104	134	122	108	57	5.04	4.16	2.85	89.8	100	109	98.8	93.9	109	89.2	59.5	5.72	3.5	2.44	111	120	122	114	108	115	95.1	65	5.26	5	2.94
COc1ccc([C@@H]2CC(=O)c3c(O)cc(O[C@@H]4O[C@H](CO[C@@H]5O[C@@H](C)[C@H](O)[C@@H](O)[C@H]5O)[C@@H](O)[C@H](O)[C@H]4O)cc3O2)cc1O	106	104	121	111	115	97.7	112	123	117	109	117	102	100	121	117	105	105	110	102	108	124	120	94.3	101	115	122	124	107	123	116	114	114	104
NC(=O)C1CCCc2c1[nH]c1ccc(Cl)cc21 (stereo not drawn)	111	129	121	117	123	117	105	87.6	57.4	24.2	7.26	117	121	123	105	105	123	115	109	81.4	21.4	9.96	107	121	111	129	119	116	110	116	85.5	24.3	12
Cc1cnc(C(=O)O)c[n+]1[O-]												109	122	110	127	129	115	101	118	105	103	112											
O=C1Nc2ccc(I)cc2/C1=C/c1cc(Br)c(O)c(Br)c1	111	96.5	109	106	109	111	98.6	99.9	118	101	78.9	86.6	98.1	96.5	102	96.2	100	96.8	97.6	102	88.6	83	95.4	93.3	90.9	92.8	92	85.9	104	96.8	101	95.3	76.6
